Publication doi:10.1101/2025.08.22.671821v1, “Cross-regulation of (p)ppGpp and c-di-GMP pathways controls a cell-cycle transition” (biorxiv, 2025)

Tests used:
PleD (PleDCC) [1] = target: T1, PleD (PleDCC) (Caulobacter vibrioides, UniProt B8GZM2); test: ITC; format: binding
T1 construct: full-length D1-D2-DGC, His-tagged, pET11b-pleD, E. coli BL21(DE3), Ni-NTA and SEC; unphosphorylated
T1 sequence (B8GZM2 1-454): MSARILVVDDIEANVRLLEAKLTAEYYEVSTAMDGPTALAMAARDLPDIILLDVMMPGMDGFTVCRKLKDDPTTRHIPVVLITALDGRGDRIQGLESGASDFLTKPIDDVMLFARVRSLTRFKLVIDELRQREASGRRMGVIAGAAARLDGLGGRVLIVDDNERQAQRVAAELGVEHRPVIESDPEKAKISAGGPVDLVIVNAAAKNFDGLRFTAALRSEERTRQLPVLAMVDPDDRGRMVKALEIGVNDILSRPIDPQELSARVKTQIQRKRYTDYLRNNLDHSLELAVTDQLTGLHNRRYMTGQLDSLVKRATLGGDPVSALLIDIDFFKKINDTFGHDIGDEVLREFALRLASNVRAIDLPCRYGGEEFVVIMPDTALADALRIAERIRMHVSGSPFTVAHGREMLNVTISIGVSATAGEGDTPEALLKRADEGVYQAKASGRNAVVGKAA

PleDSM [2] = target: T2, PleDSM (Sinorhizobium meliloti, UniProt Q92QM5); test: c-di-GMP synthesis, C18-HPLC; format: biochemical; details: 100 µM GTP, 40 µM protein, 10 mM MgCl2, pH 7.8, 25 °C, 2 h
T2 construct: gene pleD; His-tagged, pET28a-pleDSM, E. coli BL21(DE3), Ni-NTA and SEC
T2 sequence (Q92QM5 1-455): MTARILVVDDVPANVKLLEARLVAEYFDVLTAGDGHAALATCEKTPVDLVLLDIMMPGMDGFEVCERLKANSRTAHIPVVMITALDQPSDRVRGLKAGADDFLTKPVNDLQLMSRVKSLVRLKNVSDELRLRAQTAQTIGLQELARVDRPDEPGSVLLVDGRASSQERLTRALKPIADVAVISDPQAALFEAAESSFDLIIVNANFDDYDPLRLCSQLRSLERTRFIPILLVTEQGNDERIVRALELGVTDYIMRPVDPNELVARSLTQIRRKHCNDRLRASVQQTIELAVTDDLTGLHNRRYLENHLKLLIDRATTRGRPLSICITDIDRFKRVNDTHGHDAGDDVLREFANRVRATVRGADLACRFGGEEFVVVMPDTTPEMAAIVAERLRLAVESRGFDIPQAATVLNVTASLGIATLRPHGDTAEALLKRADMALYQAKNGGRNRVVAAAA

PleD (PleDCC) [3] = target: T1, PleD (PleDCC); test: c-di-GMP synthesis, C18-HPLC; format: biochemical
PleDAT [4] = target: T3, PleDAT (Agrobacterium fabrum, UniProt A9CJ98); test: nanoDSF; format: binding; details: 100 µM protein, 1 mM ligand, pH 7.8, 5 mM MgCl2
T3 construct: gene pleD; His-tagged, pET28a-pleDAT, E. coli BL21(DE3), Ni-NTA and SEC

PleDAT [5] = target: T3, PleDAT; test: c-di-GMP synthesis, C18-HPLC; format: biochemical; details: 100 µM GTP, 40 µM protein, 10 mM MgCl2, pH 7.8, 25 °C, 2 h
WspR [6] = target: T4, WspR (Pseudomonas aeruginosa, UniProt Q9HXT9); test: c-di-GMP synthesis, C18-HPLC; format: biochemical
T4 construct: His-tagged, pET28a-wspR, E. coli BL21(DE3), Ni-NTA and SEC

PleDSM [7] = target: T2, PleDSM; test: c-di-GMP synthesis, C18-HPLC; format: biochemical; details: 100 µM GTP, 40 µM protein, 10 mM MgCl2, pH 7.8, 25 °C
WspR [8] = target: T4, WspR; test: c-di-GMP synthesis, C18-HPLC; format: biochemical; details: 100 µM GTP, 40 µM protein, 10 mM MgCl2, pH 7.8, 25 °C
PleD (PleDCC) [9] = target: T1, PleD (PleDCC); test: crystal structure ([…] and […] Å); format: binding; details: I-site (inhibitory site), two molecules per monomer; with ppGpp (9G85) or pppGpp (9G86)

T3 sequence (A9CJ98 entry or part of it): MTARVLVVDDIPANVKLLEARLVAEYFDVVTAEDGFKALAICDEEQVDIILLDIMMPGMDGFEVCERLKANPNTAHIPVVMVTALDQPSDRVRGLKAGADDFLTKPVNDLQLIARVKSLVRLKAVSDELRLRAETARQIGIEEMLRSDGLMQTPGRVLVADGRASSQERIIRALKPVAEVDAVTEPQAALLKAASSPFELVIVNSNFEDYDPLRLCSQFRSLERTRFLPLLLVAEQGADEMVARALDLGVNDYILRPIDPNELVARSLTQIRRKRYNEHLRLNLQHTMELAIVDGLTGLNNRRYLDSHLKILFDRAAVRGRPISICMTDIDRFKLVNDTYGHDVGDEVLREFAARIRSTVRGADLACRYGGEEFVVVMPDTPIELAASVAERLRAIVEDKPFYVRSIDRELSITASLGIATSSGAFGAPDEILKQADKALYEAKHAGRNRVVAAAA
T4 sequence (Q9HXT9 entry or part of it): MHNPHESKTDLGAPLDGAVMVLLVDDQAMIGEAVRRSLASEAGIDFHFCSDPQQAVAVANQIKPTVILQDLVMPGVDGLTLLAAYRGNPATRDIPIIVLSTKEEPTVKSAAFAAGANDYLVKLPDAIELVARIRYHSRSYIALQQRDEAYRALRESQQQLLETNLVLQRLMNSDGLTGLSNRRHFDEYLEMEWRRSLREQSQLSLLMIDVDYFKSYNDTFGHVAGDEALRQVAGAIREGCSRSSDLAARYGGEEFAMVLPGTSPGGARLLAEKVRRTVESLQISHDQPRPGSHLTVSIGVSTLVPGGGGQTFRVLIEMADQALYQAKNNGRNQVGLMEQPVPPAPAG

Row | Compound | Kd (PleD (PleDCC) [1]) [µM] | % inhibition at 500 μM (PleDSM [2]) | inhibition at 500 µM (PleD (PleDCC) [3]) [%] | ΔTm (PleDAT [4]) | % inhibition at 500 μM (PleDAT [5]) | also measured
1 | Nc1nc2c(ncn2[C@@H]2O[C@H](COP(=O)(O)CP(=O)(O)OP(=O)(O)O)[C@@H](O)[C@H]2O)c(=O)[nH]1 [GpCpp] | 6.01 ± 1.52 |  |  |  |  | 
2 | Nc1nc2c(ncn2[C@@H]2O[C@H](COP(=O)(O)OP(=O)(O)OP(=O)(O)O)[C@@H](OP(=O)(O)OP(=O)(O)O)[C@H]2O)c(=O)[nH]1 [pppGpp] | 9.31 ± 1.16 | ppGpp and pppGpp strongly inhibited c-di-GMP production, with pppGpp showing greater potency | > 90 | NanoDSF assays further confirmed PleDAT binding to (p)ppGpp | ppGpp and pppGpp strongly inhibited c-di-GMP production, with pppGpp showing greater potency | inhibition at 500 µM (WspR [6]): > 50%
3 | Nc1nc2c(ncn2[C@@H]2O[C@H](COP(=O)(O)OP(=O)(O)O)[C@@H](OP(=O)(O)OP(=O)(O)O)[C@H]2O)c(=O)[nH]1 [ppGpp] | 45.4 ± 22.3 | ppGpp and pppGpp strongly inhibited c-di-GMP production | > 50 | NanoDSF assays further confirmed PleDAT binding to (p)ppGpp | ppGpp and pppGpp strongly inhibited c-di-GMP production | 
4 | Nc1nc2c(ncn2[C@@H]2O[C@H](COP(=O)(O)OP(=O)(O)OP(=O)(O)O)[C@@H](O)[C@H]2O)c(=O)[nH]1 [GTP] |  |  |  |  |  | c-di-GMP synthesis, C18-HPLC (PleDSM [7]): c-di-GMP production by different diguanylate cyclases (DGCs); c-di-GMP synthesis, C18-HPLC (WspR [8]): c-di-GMP production by different diguanylate cyclases (DGCs)
5 | Nc1nc2c(ncn2[C@@H]2O[C@@H]3COP(=O)(O)O[C@H]4[C@@H](O)[C@H](n5cnc6c(=O)[nH]c(N)nc65)O[C@@H]4COP(=O)(O)O[C@H]3[C@H]2O)c(=O)[nH]1 [c-di-GMP] |  |  |  |  |  | crystal structure (2.9 and 3 Å) (PleD (PleDCC) [9]): each monomer of the (p)ppGpp-PleD structures is bound by two cyclic di-GMP molecules
